This is an account of results in patent US11691968B2, “Compound having KDM5 inhibitory activity and pharmaceutical use thereof” (ONO PHARMACEUTICAL CO., LTD., priority 2020, dated 2023).

One data set deals with KDM5A (Homo sapiens (Human), UniProt P29375). The data set can be described thus: Biochemical KDM5A Inhibition Assay (HTRF). The following applies: KDM5A protein, biotin-labelled H3K4-Me3 substrate.
Data set [1] can be described thus: Brain Concentration in Mice. The conditions noted are these: mouse, mice (C57BL/6), read-out: Unbound-Brain Concentration at 2 h at 1 mg/kg. It is filed as in vivo. The method, then:
Brain Concentration in Mice
Test compounds were orally administered to mice (C57BL/6) at 1 or 3 mg/kg. Brain samples were collected 2 h after the administration and homogenized with 3-fold volumes of distilled water.
LC-MS/MS analysis was conducted as specified below. Standard calibration samples were prepared using the same matrix and analyzed in the same manner.
Standard calibration samples were analyzed to calculate a regression equation from the peak area ratio (test compound/internal standard). The peak area ratio was determined for a measurement sample and assigned to the regression equation to calculate an assay value.

The nature of data set [2]: Metabolic Stability in Human Liver Microsomes. It is filed as in vitro ADME.
[3] abbreviates: po, orally administered, 1 mg/kg, brain 2 h after administration.
Setting [4] is: 0.5 mg/mL liver microsomes, 1.0 μM test compound, 1.0 mM NADPH, 37° C., 60 min.
Where [5] appears, read: human, microsomes, 1 h, 1 μM, pH 7.4.

Like-named read-outs stand apart in the source and are kept apart here.

Sequence of KDM5A (P29375 whole entry): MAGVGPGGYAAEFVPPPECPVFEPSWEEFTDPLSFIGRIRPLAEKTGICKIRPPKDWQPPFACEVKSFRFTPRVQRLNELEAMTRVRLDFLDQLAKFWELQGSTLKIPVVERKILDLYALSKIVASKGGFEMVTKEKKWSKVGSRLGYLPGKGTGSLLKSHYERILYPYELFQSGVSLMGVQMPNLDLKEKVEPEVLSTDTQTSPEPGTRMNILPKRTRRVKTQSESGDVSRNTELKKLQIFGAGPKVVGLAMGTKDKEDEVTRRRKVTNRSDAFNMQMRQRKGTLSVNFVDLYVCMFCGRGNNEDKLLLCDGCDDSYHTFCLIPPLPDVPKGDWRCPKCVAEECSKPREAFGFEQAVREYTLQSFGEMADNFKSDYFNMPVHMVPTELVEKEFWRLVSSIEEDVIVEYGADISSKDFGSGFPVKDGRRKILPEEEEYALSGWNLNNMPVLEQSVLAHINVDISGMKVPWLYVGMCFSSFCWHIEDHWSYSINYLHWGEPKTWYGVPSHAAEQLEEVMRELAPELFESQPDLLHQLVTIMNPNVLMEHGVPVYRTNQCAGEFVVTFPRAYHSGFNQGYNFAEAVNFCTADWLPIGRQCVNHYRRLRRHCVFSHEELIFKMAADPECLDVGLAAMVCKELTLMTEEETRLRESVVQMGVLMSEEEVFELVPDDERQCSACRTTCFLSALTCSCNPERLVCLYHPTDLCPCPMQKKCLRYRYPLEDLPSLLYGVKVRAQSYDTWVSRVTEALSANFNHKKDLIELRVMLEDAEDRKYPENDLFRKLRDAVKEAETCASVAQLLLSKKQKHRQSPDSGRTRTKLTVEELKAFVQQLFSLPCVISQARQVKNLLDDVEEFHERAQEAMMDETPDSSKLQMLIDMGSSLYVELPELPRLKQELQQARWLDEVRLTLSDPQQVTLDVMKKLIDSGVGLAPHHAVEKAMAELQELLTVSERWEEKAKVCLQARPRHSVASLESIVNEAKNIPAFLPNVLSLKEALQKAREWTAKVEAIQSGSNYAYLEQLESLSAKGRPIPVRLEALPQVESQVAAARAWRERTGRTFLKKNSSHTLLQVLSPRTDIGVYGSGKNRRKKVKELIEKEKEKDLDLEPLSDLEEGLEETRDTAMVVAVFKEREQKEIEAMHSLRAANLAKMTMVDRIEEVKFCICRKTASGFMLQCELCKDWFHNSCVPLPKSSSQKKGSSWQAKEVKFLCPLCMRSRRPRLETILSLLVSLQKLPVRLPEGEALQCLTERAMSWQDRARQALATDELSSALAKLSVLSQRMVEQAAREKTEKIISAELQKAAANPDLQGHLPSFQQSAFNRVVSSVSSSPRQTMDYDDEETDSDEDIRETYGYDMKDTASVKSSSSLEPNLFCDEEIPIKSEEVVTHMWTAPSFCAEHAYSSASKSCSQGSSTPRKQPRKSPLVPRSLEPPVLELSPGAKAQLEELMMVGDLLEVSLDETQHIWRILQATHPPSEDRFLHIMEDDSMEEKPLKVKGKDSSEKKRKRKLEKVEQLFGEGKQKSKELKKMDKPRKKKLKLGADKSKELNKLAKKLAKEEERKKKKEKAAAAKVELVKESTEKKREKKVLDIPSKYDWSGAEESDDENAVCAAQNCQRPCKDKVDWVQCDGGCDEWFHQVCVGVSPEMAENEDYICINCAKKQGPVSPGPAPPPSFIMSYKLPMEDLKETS

`O=C(c1cn(C2CC2)cn1)N1C[C@@H]2[C@H](C1)[C@H]2C1=NOC2(CC2)C1` [Example 51, (1-cyclopropyl-1H-imidazol-4-yl)[(1R,5S,6r)-6-(4-oxa-5-azaspiro[2.4]hept-5-en-6-yl)-3-azabicyclo[3.1.0]hex-3-yl]methanone] showed an IC50 against KDM5A of 20 nM. For the same compound, the concentration at 2 h in data set [1] (setting [3]) was determined as 55.3 ng/g. In addition, the “Metabolic stability in human liver microsomes (% remaining at 60 min)” value (shortened to “Metabolic stability … (% remaining at 60 min)”) in data set [2] (setting [4]) came to 95%.

Turning to `CC(C)n1cnc(C(=O)N2C[C@@H]3[C@H](C2)[C@@]3(C)C2=NOC(C)(C)C2)c1` [Example 81, [(1R,5S,6r)-6-(5,5-dimethyl-4,5-dihydro-1,2-oxazol-3-yl)-6-methyl-3-azabicyclo[3.1.0]hex-3-yl](1-isopropyl-1H-imidazol-4-yl)methanone], half-maximal inhibition at KDM5A (IC50) required 60 nM. Also, the concentration at 2 h in data set [1] (setting [3]) is 21.9 ng/g. Moreover, the “Metabolic stability … (% remaining at 60 min)” value in data set [2] (setting [5]) is recorded as 100%.

With `CC1(C)CC([C@@]2(C)[C@@H]3CN(C(=O)c4cn(C5CC5)cn4)C[C@@H]32)=NO1` [Example 82, (1-cyclopropyl-1H-imidazol-4-yl)[(1R,5S,6r)-6-(5,5-dimethyl-4,5-dihydro-1,2-oxazol-3-yl)-6-methyl-3-azabicyclo[3.1.0]hex-3-yl]methanone], the IC50 against KDM5A was 30 nM. Also, the concentration at 2 h in data set [1] (setting [3]) was 57.4 ng/g. Besides, the “Metabolic stability … (% remaining at 60 min)” value in data set [2] (setting [5]) was 104%.

Compound `C[C@]1(C2=NOC3(CC3)C2)[C@@H]2CN(C(=O)c3cn(C4CC4)cn3)C[C@@H]21` [Example 85, (1-cyclopropyl-1H-imidazol-4-yl)[(1R,5S,6r)-6-methyl-6-(4-oxa-5-azaspiro[2.4]hept-5-en-6-yl)-3-azabicyclo[3.1.0]hex-3-yl]methanone] came in with an IC50 at KDM5A of 20 nM. Moreover, the concentration at 2 h in data set [1] (setting [3]) was 76.7 ng/g. The “Metabolic stability … (% remaining at 60 min)” value in data set [2] (setting [4]) was found to be 98%.

The compound `CC(C)c1cc(C(=O)N2C[C@@H]3[C@H](C2)[C@H]3C2=NOC(C)(C)C2)n[nH]1` [Example 88, [(1R,5S,6r)-6-(5,5-dimethyl-4,5-dihydro-1,2-oxazol-3-yl)-3-azabicyclo[3.1.0]hex-3-yl](5-isopropyl-1H-pyrazol-3-yl)methanone] displayed a 50% inhibitory concentration (IC50) at KDM5A of 70 nM. In addition, the concentration at 2 h in data set [1] (brain, oral, 2 h, values with * obtained by proportional calculation from the 3 mg/kg data) is 39.5 ng/g. Moreover, the “Metabolic stability … (% remaining at 60 min)” value in data set [2] (setting [5]) was 95%.
